# Assay results from PMC5923123, “In Vitro and In Vivo Efficacy of a Novel and Long-Acting Fungicidal Azole, PC1244, on Aspergillus fumigatus Infection” (Antimicrobial Agents and Chemotherapy, 2018).
# Values joined by “and” are separate entries in the source; they are usually repeats but may differ in a detail not shown here. Equal values may be shown once. Read-outs that look alike come from different tables or passages of the source.
# Assays:
# [1] = system: A. fumigatus hyphae (NCPF2010); experiment: Persistence of action on A. fumigatus hyphae (resazurin microtiter assay); assay type: cell-based, Aspergillus fumigatus; details: for IC50: Aspergillus fumigatus, NCPF2010
# Experimental: The duration of action of test agents within the hyphae of A. fumigatus has been determined using a resazurin-based microtiter assay ([28]).
# The persistence of action of the test agents against A. fumigatus hyphae (NCPF2010) was determined as previously reported ([28]). […] The plates were incubated for exactly 20 min at 35°C in 5% CO2. After the incubation time had elapsed, all wells on the designated washout plate were aspirated and growth medium (100 μl/well) was added across the plate. […] Resazurin (0.04% diluted in growth medium) was added to all wells of both the nonwashout and washout plates (5 μl/well) to give a final concentration of 0.002% resazurin. The plates were incubated at 35°C in 5% CO2 for 16 h. Subsequently, the fluorescence in each well was measured at an excitation λ of 545 nm and an emission λ of 600 nm using a multiscanner (Clariostar; BMG, Buckinghamshire, UK). […] This study was conducted in quadruplicate in three independent experiments.
# [2] = system: Candida albicans (20240.047, ATCC 10231); experiment: CLSI MIC; assay type: cell-based
# [3] = system: BEAS2B cells infected with A. fumigatus; experiment: Persistence of action in bronchial epithelial cells (galactomannan in supernatant); assay type: cell-based, Aspergillus fumigatus; details: for IC50: Aspergillus fumigatus, BEAS-2B, GM readout
# Experimental: In a second system, the persistence of the action of the same three agents on A. fumigatus-infected bronchial epithelial cells was quantified using galactomannan (GM) production in the culture supernatant as an index of fungal growth. BEAS2B cells were infected with A. fumigatus, and the effects of a 24-h washout period (medium change) prior to infection were examined.
# The persistence of action of the test agents was evaluated in immortalized bronchial epithelial cells (BEAS2B cells) as previously reported ([28]). […] The plate was incubated for exactly 1 h at 37°C in 5% CO2. After the incubation time had elapsed, all wells on the washout plate were aspirated and growth medium (100 μl/well) was added across the plate. […] The plate was incubated for exactly 1 h at 37°C in 5% CO2, after which A. fumigatus conidia were added across both plates at a final concentration of 1 × 10^3/well. […] This study was conducted in triplicate in three independent experiments.
# [4] = system: Aureobasidium pullulans (ATCC 348); experiment: CLSI MIC; assay type: cell-based; details: ATCC348, 1 strain
# [5] = system: A. fumigatus (NCPF2010); experiment: Broth microdilution MIC (96-well) preceding MFC determination; details: Aspergillus fumigatus
# Experimental: (§2) After the MIC for each compound was recorded, fungicidal activity was determined as previously described ([35]). Briefly, medium from each well (100 μl/well) was removed after pipetting up and down five times and subcultured onto 4% Sabouraud dextrose agar plates. The plates were incubated (35°C with ambient air) for 48 h, and the numbers of CFU were counted for each compound concentration. The minimum fungicidal concentration (MFC) was determined as the lowest compound concentration yielding 3 colonies or less.
# [6] = system: Gibberella zeae(Fusarium graminearum) (ATCC 16106); experiment: microbe, parasite or virus in culture; assay type: cell-based; details: ATCC16106
# [7] = system: Aspergillus carbonarius (ATCC 8740); experiment: CLSI MIC; assay type: cell-based
# [8] = system: Aspergillus niger (ATCC 1015); experiment: EUCAST MIC; assay type: cell-based
# [9] = system: ergosterol production in A. fumigatus (NCPF2010); experiment: A. fumigatus cell-based ergosterol assay; details: for IC50: Aspergillus fumigatus
# Experimental: CYP51 enzyme-inhibitory activity was also measured in a cell-based assay, as described previously ([28]). In this plate-based ergosterol quantification experiment, oxidation of ergosterol by cholesterol oxidase was determined by observing the conversion of the weakly fluorescent resazurin to the highly fluorescent resorufin and was normalized using crystal violet staining (indicating cell number).
# After incubation for 24 h at 35°C, the medium was removed from all wells and replaced with reaction buffer (catalog number A12216; Amplex red cholesterol assay kit; Thermo Fisher) and Amplex red solution. The plates were incubated for 30 min at 37°C with protection from light, after which the fluorescence was quantified using a spectrophotometer. The medium was removed from all wells and replaced with crystal violet solution (1%, vol/vol), and the plates were incubated at room temperature on a shaker for 30 min. The plates were washed three times with phosphate-buffered saline (PBS), and sodium dodecyl sulfate solution (0.1%, vol/vol) was added across the plate to lyse the cells. After incubation at room temperature for 1 h, the absorbance (OD) at 590 nm was measured using a spectrophotometer.
# [10] = system: Aspergillus terreus (AT49, AT7130); experiment: EUCAST MIC; assay type: cell-based
# [11] = system: 96 clinically isolated A. fumigatus strains; experiment: EUCAST MIC against clinical isolates (visual); assay type: cell-based, Aspergillus fumigatus; details: 96 clinical isolates; for MIC Range / MIC50 / MIC90 / MIC: visual; for MIC50 / MIC90 / MIC: Aspergillus fumigatus
# Description: The antifungal activity of PC1244 was further evaluated against 96 clinical isolates (obtained from Saint Louis Hospital, Paris, France [50 isolates], and the North West England Mycology Reference Centre, Manchester, UK [46 isolates]). […] .
# [12] = system: A. fumigatus (NCPF2010); experiment: Fungicidal activity by subculture on agar (CFU-MFC); details: for MFC: Aspergillus fumigatus, NCPF2010, 48 h, read-out: CFU-MFC; for CFU-MFC/MIC ratio: NCPF2010
# Experimental: as §2
# [13] = system: Rhizopus oryzae(ATCC 11145); experiment: CLSI MIC; assay type: cell-based; details: Rhizopus arrhizus, ATCC11145, 1 strain
# [14] = system: Trichophyton rubrum (ATCC 10218); experiment: CLSI MIC; assay type: cell-based; details: ATCC10218, 1 strain
# [15] = system: Penicillium chrysogenum (ATCC 9480); experiment: CLSI MIC; assay type: cell-based; details: ATCC9480, 1 strain
# [16] = system: Aspergillus flavus (AFL8, NRRC3357); experiment: EUCAST MIC; assay type: cell-based
# [17] = system: A. fumigatus AF72; experiment: EUCAST broth microdilution growth inhibition (OD 530 nm, 384-well); assay type: cell-based; details: Aspergillus fumigatus, strain AF72 (ITC-resistant), 48 h
# Experimental: (§1) The antifungal activities of the test compounds against A. fumigatus strains (itraconazole [ITC]-susceptible strains NCPF2010, AF294, and AF293; ITC-resistant strains AF72 and AF91) were calculated from growth curves generated by spectrophotometric analysis and compared to the activities against positive and negative controls.
# [18] = system: A. fumigatus AF91; experiment: as above; assay type: cell-based; details: Aspergillus fumigatus, strain AF91 (ITC-resistant), 48 h
# Experimental: as §1
# [19] = system: A. fumigatus NCPF2010; experiment: as above; assay type: cell-based; details: Aspergillus fumigatus, strain NCPF2010 (ITC-susceptible), 48 h, range tested 0.002 to 1 μg/ml
# Experimental: as §1
# [20] = system: A. fumigatus AF293; experiment: as above; assay type: cell-based; details: Aspergillus fumigatus, strain AF293 (ITC-susceptible), 48 h
# Experimental: as §1
# [21] = system: A. fumigatus AF294; experiment: as above; assay type: cell-based; details: Aspergillus fumigatus, strain AF294 (ITC-susceptible), 48 h
# Experimental: as §1
# [22] = system: Cladosporium argillaceum (ATCC 38013); experiment: CLSI MIC; assay type: cell-based; details: Rhizocladosporium argillaceum, ATCC38013, 1 strain
# [23] = 20 min contact, washout, 16 h incubation, read-out: Hyphae IC50 Washout
# [24] = continuous contact 16 h, read-out: Hyphae IC50 No washout
# [25] = ATCC10231, CLSI, 2 strains, mean MIC, MIC = 50% inhibition of fungal growth, read-out: MIC
# [26] = 1 h contact before infection, no washout, read-out: BEAS2B cells IC50 No washout
# [27] = 1 h contact then 24-h washout before infection, read-out: BEAS2B cells IC50 Washout
# [28] = ATCC8740, CLSI, 1 strain, read-out: MIC
# [29] = ATCC1015, EUCAST, 1 strain, read-out: MIC
# [30] = NCPF2010, 24 h, read-out: IC50, inhibition of ergosterol production
# [31] = EUCAST, 2 strains, mean MIC, read-out: MIC
smiles,measurement,setting,value
"Cc1cc(N2CCN(c3ccc(C(=O)N[C@H]4CCCC[C@@H]4O)cc3)CC2)ccc1OC[C@@H]1CO[C@@](Cn2cncn2)(c2ccc(F)cc2F)C1 [PC1244, 4-(4-(4-(((3R,5R)-5-((1H-1,2,4-triazol-1-yl)methyl)-5-(2,4-difluorophenyl)tetrahydrofuran-3-yl)methoxy)-3-methylphenyl)piperazin-1-yl)-N-((1S,2S)-2-hydroxycyclohexyl)benzamide]",Hyphae Fold change (washout vs no washout),[1],2.4 fold and 2.41 fold
same,IC50,[1]; [23],0.00025 µg/mL
same,IC50,[1]; [24],0.00011 µg/mL
same,fold more potent than POS at inhibiting hyphal growth,[1]; no washout IC50,4.1 fold
same,fold more potent than VRC at inhibiting hyphal growth,[1]; no washout IC50,100 fold
same,MIC,[2]; [25],< 0.0078 µg/mL
same,IC50,[3]; [26],0.0034 µg/mL
same,IC50,[3]; [27],0.018 µg/mL
same,MIC,[4],1 µg/mL
same,MIC,[5],0.063 µg/mL
same,MIC,[6],1 µg/mL
same,MIC,[7]; [28],0.063 µg/mL
same,MIC,[8]; [29],0.5 µg/mL
same,fold more potent than POS at inhibiting ergosterol production,[9],2.2 fold
same,fold more potent than VRC at inhibiting ergosterol production,[9],12 fold
same,IC50,[9]; [30],0.0055 µg/mL
same,IC50,"[9]; NCPF2010, read-out: 50% inhibitory concentration, ergosterol synthesis",8 nM
same,MIC,[10]; [31],0.38 µg/mL
same,fold more potent than VRC on the basis of geometric mean MICs,[11],6.2 fold
same,MIC Range,[11],0.008 to 2 µg/mL
same,MIC50,[11],0.032 µg/mL
same,MIC90,[11],0.5 µg/mL
same,MIC,[11]; read-out: MIC Geometric mean,0.067 µg/mL
same,MIC,[11]; read-out: MIC Mode,0.016 µg/mL
same,fold stronger than POS (CFU-MFC),[12],2 fold
same,fold stronger than VRC (CFU-MFC),[12],8 fold
same,MFC,[12],2 µg/mL
same,CFU-MFC/MIC ratio,[12],32
same,MIC,[13],0.25 µg/mL
same,MIC,[14],0.031 µg/mL
same,MIC,[15],0.13 µg/mL
same,MIC,[16]; [31],0.38 µg/mL
same,IC50,[17],0.0024 µg/mL
same,IC90,[17],0.026 µg/mL
same,IC50,[18],0.0037 µg/mL
same,IC90,[18],0.024 µg/mL
same,IC50,[19],0.0017 µg/mL
same,IC90,[19],0.0022 µg/mL
same,IC50,[20],0.0026 µg/mL
same,IC90,[20],0.012 µg/mL
same,IC50,[21],0.0021 µg/mL
same,IC90,[21],0.0041 µg/mL
same,MIC,[22],0.25 µg/mL
"CC[C@@H]([C@H](C)O)n1ncn(-c2ccc(N3CCN(c4ccc(OC[C@@H]5CO[C@@](Cn6cncn6)(c6ccc(F)cc6F)C5)cc4)CC3)cc2)c1=O [Posaconazole, posaconazole]",IC50,[1]; [23],0.0022 µg/mL
same,IC50,[1]; [24],0.00045 µg/mL
same,MIC,[2]; [25],0.081 µg/mL
same,IC50,[3]; [26],0.0031 µg/mL
same,IC50,[3]; [27],0.046 µg/mL
same,MIC,[4],1 µg/mL
same,MIC,[5],0.125 µg/mL
same,MIC,[6],> 8 µg/mL
same,MIC,[7]; [28],0.063 µg/mL
same,MIC,[8]; [29],0.2 µg/mL
same,IC50,[9]; [30],0.012 µg/mL and 17 nM
same,MIC,[10]; [31],0.093 µg/mL
same,MIC Range,[11],0.016 to 2 µg/mL
same,MIC50,[11],0.063 µg/mL
same,MIC90,[11],0.5 µg/mL
same,MIC,[11]; read-out: MIC Geometric mean,0.1 µg/mL
same,MIC,[11]; read-out: MIC Mode,0.032 µg/mL
same,MFC,[12],4 µg/mL
same,CFU-MFC/MIC ratio,[12],32
same,MIC,[13],> 8 µg/mL
same,MIC,[14],0.031 µg/mL
same,MIC,[15],0.13 µg/mL
same,MIC,[16]; [31],0.16 µg/mL
same,IC50,[17],0.042 µg/mL
same,IC90,[17],0.3 µg/mL
same,IC50,[18],0.038 µg/mL
same,IC90,[18],0.049 µg/mL
same,IC50,[19],0.007 µg/mL
same,IC90,[19],0.0084 µg/mL
same,IC50,[20],0.01 µg/mL
same,IC90,[20],0.028 µg/mL
same,IC50,[21],0.0056 µg/mL
same,IC90,[21],0.011 µg/mL
same,MIC,[22],0.25 µg/mL
"C[C@@H](c1ncncc1F)[C@](O)(Cn1cncn1)c1ccc(F)cc1F [Voriconazole, voriconazole]",IC50,[1]; [23],> 1 µg/mL
same,IC50,[1]; [24],0.011 µg/mL
same,MIC,[2]; ATCC10231,0.14 µg/mL
same,IC50,[3]; [26],0.054 µg/mL
same,IC50,[3]; [27],> 1 µg/mL
same,activity after 1-h contact and 24-h washout,[3]; BEAS2B cells,ineffective
same,MIC,[4],> 8 µg/mL
same,MIC,[5],1.67 ± 0.58 µg/mL
same,MIC,[6],> 8 µg/mL
same,MIC,[7]; ATCC8740,0.5 µg/mL
same,MIC,[8]; ATCC1015,1 µg/mL
same,IC50,[9]; [30],0.067 µg/mL and 190 nM
same,MIC,[10],1 µg/mL
same,MIC Range,[11],0.06 to 4 µg/mL
same,MIC50,[11],0.5 µg/mL
same,MIC90,[11],1 µg/mL
same,MIC,[11]; read-out: MIC Geometric mean,0.42 µg/mL
same,MIC,[11]; read-out: MIC Mode,0.5 µg/mL
same,MFC,[12],16 µg/mL
same,MIC,[13],> 8 µg/mL
same,MIC,[14],0.063 µg/mL
same,MIC,[15],2 µg/mL
same,MIC,[16],0.63 µg/mL
same,IC50,[17],0.025 µg/mL
same,IC90,[17],0.066 µg/mL
same,IC50,[18],0.14 µg/mL
same,IC90,[18],0.28 µg/mL
same,IC50,[19],0.15 µg/mL
same,IC90,[19],0.21 µg/mL
same,IC50,[20],0.25 µg/mL
same,IC90,[20],0.74 µg/mL
same,IC50,[21],0.083 µg/mL
same,IC90,[21],0.27 µg/mL
same,MIC,[22],0.5 µg/mL
